Measurements published in PMC10476022 (RSC Advances, 2023).
Entries after “also recorded” stand apart in the source; their conditions may differ.

Key:
[1] = Antioxidant potential by DPPH assay
Excerpt: Assessment of the toxicity is the prerequisite study for the synthetic derivatives. […] AChE enzyme provides the site for the aggregation of the Aβ1–42.

[2] = molecular target: T1, hAChE (Homo sapiens, UniProt P22303); experiment: biochemical; conditions: for Selectivity ratio: (IC50 of BuChE)/(IC50 of AChE); for IC50: tris-HCl buffer pH 8.0, read-out: IC50 ± SE hAChE
T1 construct: purchased Sigma Aldrich
T1 sequence (P22303 32-614): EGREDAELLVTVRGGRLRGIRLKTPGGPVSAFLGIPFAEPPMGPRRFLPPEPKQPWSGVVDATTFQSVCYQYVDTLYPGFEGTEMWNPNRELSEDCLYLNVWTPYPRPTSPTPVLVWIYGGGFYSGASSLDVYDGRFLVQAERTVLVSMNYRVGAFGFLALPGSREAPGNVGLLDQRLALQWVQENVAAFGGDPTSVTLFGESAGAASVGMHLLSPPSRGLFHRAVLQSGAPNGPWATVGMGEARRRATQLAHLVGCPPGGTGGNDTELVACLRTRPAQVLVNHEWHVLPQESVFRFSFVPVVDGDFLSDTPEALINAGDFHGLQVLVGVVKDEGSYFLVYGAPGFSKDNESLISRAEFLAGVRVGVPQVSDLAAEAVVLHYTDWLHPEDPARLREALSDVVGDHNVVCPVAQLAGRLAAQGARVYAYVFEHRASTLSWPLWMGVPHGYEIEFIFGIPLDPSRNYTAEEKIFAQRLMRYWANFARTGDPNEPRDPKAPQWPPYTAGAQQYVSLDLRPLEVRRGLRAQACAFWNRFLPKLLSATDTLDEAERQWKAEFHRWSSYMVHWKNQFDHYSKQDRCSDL
Method: (§1) Himedia supplied Acetylthiocholine iodide (AthCI), Butyrylthiocholine iodide (BthCI), and 5,5′-dithiobis (2-nitrobenzoic acid) (DTNB-reagent). […] AChE (50 μL, 1.00 U mL^−1) or BuChE (50 μL, 0.6 U mL^−1) and 20 μL of the test or standard compounds were incubated in a 96 well plate for 30 minutes at room temperature. […] The IC50 values were determined by measuring the absorbance of the test and standard substances. Three independent runs of the assays were conducted in triplicate.

[3] = molecular target: T2, hBuChE (Homo sapiens, UniProt P06276); experiment: biochemical; type: biochemical; conditions: for IC50: tris-HCl buffer pH 8.0, read-out: IC50 ± SE hBuChE
T2 construct: purchased Sigma Aldrich
Method: as §1

[4] = system: SH-SY5Y cell line; experiment: Cell line-based toxicity study (MTT assay); conditions: 72 h
Method: In recent decades, in vitro cell line research has become commonplace since they are useful for primary optimization and mechanistic investigations before toxicological studies on animals.[29]
Briefly, the cell lines (density 1 × 10^4 cells per wells) were plated in 96 well plates and incubated for 24 h at 37 °C in a humidified atmosphere with 5% CO2. […] The absorbance was measured at 570 nm, and the percent cell viability was calculated. Each treatment was executed in triplicate and data were presented as a percentage of the control.

[5] = system: T3, Aβ1–42; experiment: AChE-induced Aβ1–42 aggregation assay (ThT); type: biochemical
T3 construct: Aβ1–42, purchased from Sigma, was dissolved in 10 mM phosphate buffer; purchased Sigma
Method: The Aβ oligomers and aggregates formed with or without AChE and metal ions induce multifaceted toxicity leading to neuronal cell death. […] Aβ1–42, purchased from Sigma, was dissolved in 10 mM phosphate buffer (PBS) of pH 7.5 to get a stock concentration of […]. The test compounds were dissolved in the DMSO and further diluted with PBS. Different proportions of the Aβ1-42: Inhibitor (1 : 0.05, 1 : 1, 1 : 2) were used in the ThT assay. […] The mixtures were incubated at room temperature for 48 hours in the dark.

| SMILES | % free radicle scavenging, mean ± SE ([1]; 50 μM) [%] | % free radicle scavenging, mean ± SE ([1]; 100 μM) [%] | Selectivity ratio [2] | IC50 [2] [µM] | IC50 [3] [µM] | BuChE inhibition (in words) [3] | concentration with no significant toxicity [4] [µM] | effect on AChE-induced Aβ1–42 aggregation (in words) ([5]; 0.5, 10, 20 μM, 48 h incubation) | AChE-induced Aβ aggregation inhibited ([5]; tested at 0.5, 10 and 20 μM) [%] |
| --- | --- | --- | --- | --- | --- | --- | --- | --- | --- |
| O=C1O[C@H]([C@@H](O)CO)C(O)=C1O [Ascorbic acid, reference compound] | 42.66 ± 1.491 | 76.76 ± 0.708 |  |  |  |  |  |  |  |
| COc1ccc2c(c1)c(CC(=O)NN=Cc1cccc(O)c1)c(C)n2C(=O)c1ccc(Cl)cc1 [IND-24, (1-(4-Chlorobenzoyl)-5-methoxy-2-methyl-1H-indol-3-yl)-N′-(3-hydroxybenzylidene) aceto-hydrazide] | 17.68 ± 0.478 | 34.34 ± 1.333 | 7.83 | 12.5 ± 0.143 | 98.18 ± 0.12 |  |  |  |  |
| COc1cccc(C=NNC(=O)Cc2c(C)n(C(=O)c3ccc(Cl)cc3)c3ccc(OC)cc23)c1 [IND-25, (1-(4-Chlorobenzoyl)-5-methoxy-2-methyl-1H-indol-3-yl)-N′-(3-methoxybenzylidene) aceto-hydrazide] | 11.51 ± 0.748 | 27.99 ± 1.127 |  | 264.23 ± 0.102 | > 1000 | inactive on the BuChE enzyme |  |  |  |
| COc1ccc2c(c1)c(CC(=O)NN=Cc1ccc(O)cc1)c(C)n2C(=O)c1ccc(Cl)cc1 [IND-30, (1-(4-Chlorobenzoyl)-5-methoxy-2-methyl-1H-indol-3-yl)-N′-(4-hydroxybenzylidene)aceto-hydrazide] | 15.19 ± 0.881 | 30.65 ± 1.010 | 22.92 | 4.16 ± 0.063 | 95.34 ± 0.144 |  | ≤ 30000 | effective only at the higher dose (20 μM); also recorded: decreased Aβ aggregation in a concentration-dependent manner; also recorded: active at 20 μM | ~50 |
| COc1ccc2c(c1)c(CC(=O)NN=Cc1ccccc1OC)c(C)n2C(=O)c1ccc(Cl)cc1 [IND-31, (1-(4-Chlorobenzoyl)-5-methoxy-2-methyl-1H-indol-3-yl)-N′-(2-methoxybenzylidene)aceto-hydrazide] | 9.75 ± 0.625 | 26.43 ± 0.887 |  | 421.22 ± 0.086 | > 1000 | inactive on hBuChE |  |  |  |
| COc1ccc2c(c1)c(CC(=O)NN=Cc1c(O)cccc1O)c(C)n2C(=O)c1ccc(Cl)cc1 [IND-40, (1-(4-Chlorobenzoyl)-5-methoxy-2-methyl-1H-indol-3-yl)-N′-(2,6-dihydroxybenzylidene)aceto-hydrazide] | 24.10 ± 0.889 | 50.39 ± 0.930 | 9.77 | 70.54 ± 0.133 | 689.12 ± 0.128 |  |  |  |  |
| COc1ccc2c(c1)c(CC(=O)NN=Cc1cccc(O)c1O)c(C)n2C(=O)c1ccc(Cl)cc1 [IND-42, (1-(4-Chlorobenzoyl)-5-methoxy-2-methyl-1H-indol-3-yl)-N′-(2,3-dihydroxybenzylidene)aceto-hydrazide] | 18.21 ± 0.598 | 38.87 ± 1.012 | 5.44 | 122.75 ± 0.086 | 668.22 ± 0.133 |  |  |  |  |
